According to patent US9012512B2, “Aqueous extracts from monocotyledon plants and their use in cardioprotection” (priority 2008, dated 2015):

Columns and labels:
Type in all cases: cell-based
rat thoracic aorta [1] = assay: Combined vasorelaxing effects of TAA with GTN or SNP: phenylephrine-induced tension in rat thoracic aorta; conditions: 0.1 μM agent alone; control vehicle 2.1 g
Method: The rats were allowed to acclimate in environmentally controlled quarters (20-22° C. with 12:12 hr light-dark cycles). […] After equilibration, the aortic rings were stabilized with a near maximal contraction induced by 0.3 μM phenylephrine. When the rings achieved a stable level of contraction, 3 μM acetylcholine was added to the bath, in which the aorta rings were soaked, to assess endothelial integrity. Intimas were gently frayed with a cotton swab to disrupt the endothelium.

rat thoracic aorta [2] = assay: Vasorelaxing effect on phenylephrine-induced contraction of rat thoracic aortic rings
rat thoracic aorta [3] = assay: Relaxation of phenylephrine-contracted rat aortic rings in the presence of acetylcholine; conditions: 0.3 μM phenylephrine, acetylcholine 3 μM present
Method: Male Sprague-Dawley rats, weighing 250-350 g (Laboratory Animal Science Center of the National Yang-Ming University, Taipei, Taiwan), were used in this study. The rats were allowed to acclimate in environmentally controlled quarters (20-22° C. with 12:12 hr light-dark cycles). Thoracic aorta was excised carefully and fixed isometrically in organ chambers (15 mL) containing a 37° C. modified Krebs' solution (120 mM NaCl, 4.5 mM KCl, 2.5 mM CaCl2, 1 mM MgSO4, 27 mM NaHCO3, 1 mM KH2PO4, 10 mM glucose, pH 7.4) through which a mixture of 95% O2-5% CO2 was continuously supplied. The aortic rings of 3-4 mm were equilibrated under passive tension of 1.8 g for 60 min. After equilibration, the aortic rings were stabilized with a near maximal contraction induced by 0.3 μM phenylephrine. When the rings achieved a stable level of contraction, 3 μM acetylcholine was added to the bath, in which the aorta rings were soaked, to assess endothelial integrity. Intimas were gently frayed with a cotton swab to disrupt the endothelium.
The relaxation effect of TAA on rat thoracic aorta in the presence of acetylcholine was also investigated. Vascular contraction in rat aortic rings was induced by 0.3 μM phenylephrine as described above. Acetylcholine (3 μM) was added to the bath, in which the aortic rings were soaked, to assess endothelial integrity. […]

SMILES | phenylephrine-induced tension (rat thoracic aorta [1]) [g] | maximum relaxation induced (rat thoracic aorta [2]; TAA 100 μM, contraction induced by 10 μM phenylephrine, n=16) [%] | vasorelaxing effect in rat thoracic aorta (rat thoracic aorta [2]; TAA 100 μM, phenylephrine precontracted aortic rings) | relaxation in phenylephrine-induced contraction (rat thoracic aorta [2]; endothelium-intact preparations) | increase of relaxation (rat thoracic aorta [3]; TAA 100 μM, n=16) [%] | relaxation levels (rat thoracic aorta [3]; TAA 0.1-100 μM)
O=[N+]([O-])OCC(CO[N+](=O)[O-])O[N+](=O)[O-] [GTN, glyceryltrinitrate] | 1.3 | – | – | – | – | –
O=C(O)/C=C(\CC(=O)O)C(=O)O [TAA, trans-aconitic acid] | – | 40 | significant vasorelaxing effect | concentration-dependent relaxation | 55 | significant increase of relaxation levels
